Source: the METLIN SMRT retention time set (Domingo-Almenara et al. 2019)

Experiment: gradient 5% acetonitrile 3 min, to 50% in 2 min, to 85% in 15 min, held 3 min, 100 µL/min
Details: column: Zorbax Extend-C18 2.1 x 50 mm; eluents: water / acetonitrile, 0.1% formic acid
How it was run: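 A Zorbax Extend-C18 column (2.1 × 50 mm, 1.8 μm) run at 100 μL/min with water and acetonitrile, both containing 0.1% formic acid, separated mixtures of ~100 pure standards. The HPLC was coupled to a quadrupole time-of-flight mass spectrometer operated in positive and negative ionization mode, with dead and dwell volumes of 40 μL and 900 μL. Each retention time was taken from a computationally picked adduct peak that was then manually inspected.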

| Structure (SMILES) | RP-LC retention time [s] |
| --- | --- |
| COc1ccc(NC(=O)N2[C@H]3CC[C@@H]2c2cnc(C)nc2C3)cc1F | 671 |
| CCc1ccc(N2C(=O)CN(S(=O)(=O)CC)CC2(C)C(=O)NCc2ccccc2)cc1 (centres undefined) | 868 |
| Cc1cc(C)c(S(=O)(=O)NCCn2c(C)cnc2C2CC2)cc1C | 659 |
| CCOc1cc(=O)c(C(=O)N2CCC(C(N)=O)CC2)nn1-c1ccc(OC)cc1 | 609 |
| Cc1c2cnn(CC(=O)NCCN(C)C)c(=O)c2c(C)n1Cc1ccccc1Cl | 655 |
| Cc1cn(C)c(CC(=O)NCCN2CCOCC2)c1C(=O)O | 572 |
| Cc1ccnc(N2CCCC(C(=O)NCC3CCN(Cc4cccc(Cl)c4)CC3)C2)n1 (centres undefined) | 604 |
| CCCNC(=O)C1CCCN(c2ccc(SCC(=O)NCc3ccc(F)cc3)nn2)C1 (centres undefined) | 652 |
| CC1(C(=O)Nc2ccc(F)c(F)c2)CCCCC(=O)N1 (centres undefined) | 715 |
| CC(C)CCNC(=O)N1CC(c2nc(-c3ccccc3)no2)C2(CCOCC2)C1 (centres undefined) | 914 |
| COc1cccc(N2CC(NC(=O)Nc3cccnc3)CC2=O)c1 (centres undefined) | 544 |
| Cc1ccc(CNC(=O)NCCC2CCN(S(=O)(=O)c3ccccc3)CC2)cc1 | 877 |
| Cc1ccc2c(Nc3ccc4c(c3)OCCO4)c(C(=O)N3CCOCC3)cnc2n1 | 577 |
| Cn1c(N2CCN(C(=O)c3ccccc3Br)CC2)cc(=O)n(C)c1=O | 668 |
| CCOc1ccc2sc(NS(=O)(=O)c3ccc(N)cc3)nc2c1 | 797 |
| CCc1ccc(-c2noc(Cn3c(=O)n(CC)c(=O)c4ccccc43)n2)cc1 | 1160 |
| COCCCN1CN=C(Nc2nc(C)c3cccc(OC)c3n2)NC1 | 615 |
| CCSc1nnc(-c2nn(C)c3c2CN(C(=O)c2cc(C)cc(C)c2)CC3)n1C | 811 |
| Cc1nc2cc(-c3noc(-c4ccccc4Br)n3)ccc2n(C)c1=O | 948 |
| O=C(Oc1ccccc1)N(c1ccccc1)c1ccccc1 | 1160 |
| Cc1nn(CC(=O)N2CCCN(C)CC2)c(=O)c2nc(-c3ccccc3)sc12 | 606 |
| COc1ccc(-c2cn3c(CC(=O)N4CCCCC4)csc3n2)cc1OC | 666 |
| O=C(NCc1ccco1)c1ccc2c(c1)CCCN2S(=O)(=O)c1ccc(Cl)cc1 | 999 |

| Structure (SMILES) | RP-LC retention time [s] |
| --- | --- |
| Cc1ccn2cc(-c3ccc(NC(=O)c4ccc([N+](=O)[O-])cc4)cc3)nc2n1 | 655 |
| O=C(C1CCCC1)N1[C@H]2CC[C@@H]1c1cnc(-c3ccc(F)cc3)nc1C2 | 984 |
| O=C(CN1CCN(C(=O)N2CCCCC2)CC1)Nc1cc(Cl)ccc1Cl | 675 |
| COc1ccc(OC)c(CNC(=O)CN2C(=O)C(C)(C)c3cc(C)ccc32)c1 | 689 |
| CC1CCN(S(=O)(=O)c2ccc3nc(N4CCN(c5ccccc5)CC4)ccc3c2)CC1 | 962 |
| Cn1cc(-c2nc(C(=O)Nc3cccc(F)c3)cs2)c2cccnc21 | 1020 |
| COc1ccccc1-c1nnc(-c2ccc(C)c(S(=O)(=O)N3CCCCCC3)c2)o1 | 1100 |
| O=C(NC1CCc2ccccc21)C1CCN(c2ncccc2-c2nc(-c3ccccc3)no2)CC1 (centres undefined) | 1120 |
| O=C(CSc1nccc(-c2ccc3c(c2)OCO3)n1)N1CCOCC1 | 690 |
| Cc1cc(N2CCCCC2)nc(N2CCN(C(=O)c3ccc(C(C)(C)C)cc3)CC2)n1 | 855 |
| Cc1ccc2[nH]cc(CCNC(=O)COc3ccccc3)c2c1 | 904 |
| COc1cc(OC)c(NS(=O)(=O)c2c(C)sc(C)c2-c2cc(C(F)(F)F)on2)cc1Cl | 1170 |
| O=c1c2nc(-c3ccc(F)cc3F)cn2ccn1-c1ccc(F)cc1 | 862 |
| Cc1cc(Br)ccc1NC(=O)Cc1csc(Nc2ccc(Cl)cn2)n1 | 1040 |
| O=c1[nH][nH]c2nnc(-c3c(-c4ccccc4)nn4ccccc34)cc12 | 679 |
| CCc1cc(=O)n(CC(=O)N(C)c2ccccc2)c(N2CCOCC2)n1 | 674 |
| O=C(NCC1CCN(c2ncccn2)CC1)Nc1ccc2c(c1)OCO2 | 632 |
| CCOc1ccccc1NC(=O)C(CC)n1cnc2nc3c(cc2c1=O)CCCC3 (centres undefined) | 919 |
| CCc1ccc(CNc2nc3ccccc3n2CCN(CC)CC)cc1 | 558 |
| CCc1ccc(NC(=O)C(=O)NCC(c2ccc3c(c2)OCO3)N2CCOCC2)cc1 (centres undefined) | 613 |
| CS(=O)(=O)N1CCC(C(=O)Nc2ccc(Br)cc2)Oc2ccccc21 (centres undefined) | 980 |
| COc1ccccc1NC(=O)Cn1c(=O)c2cc(-c3ccco3)nn2c2ncccc21 | 804 |
| CCOC(=O)C1CCN(c2cc3c(cc2NC(=O)NC2CCCC2)n(C)c(=O)n3C)CC1 | 777 |

| Structure (SMILES) | RP-LC retention time [s] |
| --- | --- |
| COc1ccc(N2C(=O)C3N=NN(c4ccc(F)c(Cl)c4)C3C2=O)cc1 (centres undefined) | 1010 |
| CCC(C)NC(=O)c1cc(-c2ccc(Cl)cc2)[nH]c1C (centres undefined) | 923 |
| CCOc1ccc(NC(=O)c2cnc3c(c2)c(=O)n(C)c(=O)n3-c2ccc(OC)cc2)cc1 | 901 |
| CCC1CN(C(=O)N2CCC(C(=O)NCCc3ccco3)CC2)c2ccccc2O1 (centres undefined) | 852 |
| O=C(NCC(=O)N1CCc2ccccc21)Nc1ccccc1C(F)(F)F | 890 |
| CCN1CCN(S(=O)(=O)c2ccc(Cl)c(-c3nnc(-c4ccc(OC)cc4)o3)c2)CC1 | 677 |
| CCc1ccccc1NS(=O)(=O)c1ccc2c(c1)C(=O)N(CC)c1ncccc1O2 | 1050 |
| COc1cccc(CN2CCc3nc(N4CCCC4)ncc3C2)c1OC | 610 |
| Cn1cc(C(CNS(=O)(=O)c2cnc[nH]2)c2cccnc2)c2ccccc21 (centres undefined) | 590 |
| Cc1[nH]c2ccccc2c1S(=O)(=O)CCNC(=O)Nc1cccs1 | 683 |
| Cc1ccccc1NS(=O)(=O)c1cc(-c2[nH]ncc2C(=O)N2CCCCC2)oc1C | 755 |
| Cc1ccccc1Nc1nc(N)nc(CN2CCN(c3ccccn3)CC2)n1 | 568 |
| O=C(NC1CCN(Cc2ccccc2)CC1)C1CCCN(S(=O)(=O)N2CCOCC2)C1 (centres undefined) | 593 |
| CS(=O)(=O)N1CCCC1C(=O)N1CCCC1 (centres undefined) | 584 |
| COC(=O)c1nnn(-c2ccc(C)c(Cl)c2)c1C(=O)OC | 965 |
| CS(=O)(=O)c1ccc(CC(=O)N2CCN(c3ccc(=O)n(-c4ccc(Cl)cc4)n3)CC2)cc1 | 739 |
| O=C(Nc1ccc(OCC(F)(F)C(F)F)cc1)c1ccncc1 | 683 |
| CCn1cc(C(=O)O)c(=O)c2ccc(Cc3ccccc3)nc21 | 1010 |
| COC(=O)c1ccc(C(=O)NCC(O)(c2ccccc2)C(F)(F)F)cc1 (centres undefined) | 842 |
| O=C(Cc1cccs1)Nc1nnc(SCc2ccc([N+](=O)[O-])cc2)s1 | 861 |
| COc1cc2c(cc1CNC(=O)Cn1cc(C#N)c3ccccc31)OCCCO2 | 853 |
| Fc1cccc(CN2CCO[C@@H](COc3ccccn3)[C@@H]2c2ccccc2)c1 | 898 |
| Cc1ccsc1-c1nnc(CC(=O)N2CCN(Cc3ccc4c(c3)OCO4)CC2)o1 | 640 |

| Structure (SMILES) | RP-LC retention time [s] |
| --- | --- |
| CC(C)CC(=O)Nc1cnc(N2CCCCCC2)nc1 | 823 |
| CCOc1ccc(NC(=O)c2c(C)oc3nc(C)nc(N4CCCC4)c23)cc1 | 788 |
| CCn1ccc2cc(S(=O)(=O)N3CCCC(C(=O)N4CCN(c5ccccn5)CC4)C3)ccc21 (centres undefined) | 609 |
| O=C(c1ccccc1F)N1CCN(S(=O)(=O)c2cc3c4c(c2)CCC(=O)N4CCC3)CC1 | 762 |
| COc1ccccc1-c1noc(C2CCCN2C(=O)Nc2ccc(Br)cc2)n1 (centres undefined) | 964 |
| O=C(NCCN1CCOCC1)C1CCc2sc(C(=O)N3CCCCC3)cc2C1 (centres undefined) | 563 |
| O=C(CN1C(=O)CCSc2ccccc21)NCc1ccc(F)cc1 | 794 |
| COc1ccc(N2CCN(C(=O)c3[nH]c(C)c(S(=O)(=O)N4CCOCC4)c3C)CC2)cc1 | 703 |
| COc1ccc(-c2csc(NC(=O)CS(=O)(=O)c3ccc(C)cc3)n2)cc1OC | 893 |
| CCOc1ccccc1NS(=O)(=O)c1cc2c3c(c1)CCC(=O)N3CCC2 | 548 |
| Cc1cc2c(N3CCCC(C(=O)NCc4cccc(Cl)c4)C3)nccc2s1 (centres undefined) | 713 |
| CC(C)N1CCn2c(nc3cc(C(=O)NCc4ccccc4Cl)ccc32)C1=O | 719 |
| Cc1ccc(Nc2nc(C(=O)NCCc3cnc[nH]3)nc3ccccc23)cc1 | 590 |
| COc1cccc(N2CCCn3c2nc2c3c(=O)n(Cc3c(F)cccc3Cl)c(=O)n2C)c1 | 966 |
| COc1ccc(-c2nc(CNC(=O)c3ccc(-c4noc(C5CC5)n4)cc3)no2)cc1 | 952 |
| COCCN1C(=O)c2cc(-c3ccc(OC)cc3)nn2CC1(C)C(=O)NCc1ccccc1 (centres undefined) | 834 |
| CCc1cccc(C)c1Nc1c(-c2ccc(SC)cc2)nc2nc(C)cc(C)n12 | 867 |
| COc1ccc(C(=O)N2CCC3(CC2)N=C(c2ccc(Br)cc2)NO3)cc1OC | 820 |
| Cc1nc(C2CCCN2Cc2ccccc2C)n[nH]1 (centres undefined) | 546 |
| N#Cc1ccc(O[C@@H]2c3ccccc3C[C@H]2N2CCC[C@@H](N)C2)c(Cl)c1 | 707 |
